Experimental data from patent US20070142392A1, “Uses of rifamycins” (ActivBiotics, Inc., priority 2005, published 2007).
Values after ≈ are worked out from the molar mass of the structure shown.

Assays:
Assay type in all cases: cell-based
S. aureus = test: MIC values, S. aureus (Tables 1-4)
S. pneumo. = test: MIC values, S. pneumo. (Tables 1-4)
E. faecalis = test: MIC values, E. faecalis (Tables 1-4)
H. flu = tested on: H. flu
E. coli = test: MIC values, E. coli (Tables 1-4)

Row | SMILES | MIC S. aureus (S. aureus) | MIC S. pneumo. (S. pneumo.) | MIC E. faecalis (E. faecalis) | MIC H. flu (H. flu) | MIC E. coli (E. coli) | MIC F. faecalis (E. faecalis; Table 2)
1 | COC1C=COC2(C)Oc3c(C)c(O)c4c(=O)c(c5n(C)c6cc(N7CC(C)NC(C)C7)ccc6nc-5c4c3C2=O)NC(=O)C(C)=CC=CC(C)C(O)C(C)C(O)C(C)C(O)C1C (mixture of isomers) [Compound 97] | 1 µg/mL | 2 µg/mL | >8 µg/mL | 4 µg/mL | >8 µg/mL | 
2 | COC1C=COC2(C)Oc3c(C)c(O)c4c(=O)c(c5oc6cc(N7CC(C)CC(C)C7)cc(O)c6nc-5c4c3C2=O)NC(=O)C(C)=CC=CC(C)C(O)C(C)C(O)C(C)C(O)C1C (mixture of isomers) [Compound 116] | 0.008 µg/mL | 0.002 µg/mL | 1 µg/mL | 0.12 µg/mL |  | 
3 | COC1C=COC2(C)Oc3c(C)c(O)c4c(=O)c(c5oc6cc(N7CC(C)OC(C)C7)cc(O)c6nc-5c4c3C2=O)NC(=O)C(C)=CC=CC(C)C(O)C(C)C(O)C(C)C(O)C1C (mixture of isomers) [Compound 117] | 0.015 µg/mL | 0.002 µg/mL | 0.25 µg/mL | 0.25 µg/mL | 8 µg/mL | 
4 | COC1C=COC2(C)Oc3c(C)c(O)c4c(=O)c(c5oc6cc(N7CCC(F)C7)ccc6nc-5c4c3C2=O)NC(=O)C(C)=CC=CC(C)C(O)C(C)C(O)C(C)C(O)C1C (mixture of isomers) [Compound 122] | 0.03 µg/mL | 0.015 µg/mL | 0.5 µg/mL | 0.06 µg/mL | 4 µg/mL | 
5 | CCOC(=O)NC1CCN(c2cc(O)c3nc4c5c6c7c(C)c(O)c5c(=O)c(c-4oc3c2)NC(=O)/C(C)=C\C=C\[C@H](C)[C@H](O)[C@@H](C)[C@@H](O)[C@@H](C)[C@H](OC(C)=O)[C@H](C)[C@@H](OC)/C=C/O[C@@](C)(O7)C6=O)CC1 [Compound 1] | 0.008 µg/mL (≈ 0.00824 µM) | 0.00025 µg/mL (≈ 0.000257 µM) | 2 µg/mL (≈ 2.06 µM) | 2 µg/mL (≈ 2.06 µM) | >8 µg/mL | 
6 | COC1C=COC2(C)Oc3c(C)c(O)c4c(=O)c(c5oc6cc(N7CC8C(C7)C8NC(=O)OCC[Si](C)(C)C)cc(O)c6nc-5c4c3C2=O)NC(=O)C(C)=CC=CC(C)C(O)C(C)C(O)C(C)C(OC(C)=O)C1C (stereo not drawn) [Compound 2] | 1 µg/mL (≈ 0.96 µM) | 0.03 µg/mL (≈ 0.0288 µM) | >8 µg/mL | >8 µg/mL | >8 µg/mL | 
7 | CCOC(=O)NC1CCN(c2cc(O)c3nc4c5c6c7c(C)c(O)c5c(=O)c(c-4oc3c2)NC(=O)/C(C)=C\C=C\[C@H](C)[C@H](O)[C@@H](C)[C@@H](O)[C@@H](C)[C@H](O)[C@H](C)[C@@H](OC)/C=C/O[C@@](C)(O7)C6=O)CC1 [Compound 3] | 0.03 µg/mL (≈ 0.0323 µM) | 0.0005 µg/mL (≈ 0.000538 µM) | 0.12 µg/mL (≈ 0.129 µM) | 0.25 µg/mL (≈ 0.269 µM) | 4 µg/mL (≈ 4.31 µM) | 
8 | COC1C=COC2(C)Oc3c(C)c(O)c4c(=O)c(c5oc6cc(N7CC8C(N)C8C7)cc(O)c6nc-5c4c3C2=O)NC(=O)C(C)=CC=CC(C)C(O)C(C)C(O)C(C)C(OC(C)=O)C1C (stereo not drawn) [Compound 4] | 0.03 µg/mL (≈ 0.0334 µM) | 0.00025 µg/mL (≈ 0.000279 µM) | 0.5 µg/mL (≈ 0.557 µM) | 0.25 µg/mL (≈ 0.279 µM) | >8 µg/mL | 
9 | COC1C=COC2(C)Oc3c(C)c(O)c4c(=O)c(c5oc6cc(N7CC8CCCNC8C7)cc(O)c6nc-5c4c3C2=O)NC(=O)C(C)=CC=CC(C)C(O)C(C)C(O)C(C)C(OC(C)=O)C1C (stereo not drawn) [Compound 5] | 0.015 µg/mL (≈ 0.0162 µM) | 0.00025 µg/mL (≈ 0.00027 µM) | 0.5 µg/mL (≈ 0.541 µM) | 2 µg/mL (≈ 2.16 µM) | 8 µg/mL (≈ 8.65 µM) | 
10 | COC1C=COC2(C)Oc3c(C)c(O)c4c(=O)c(c5oc6cc(N7CC8CCCNC8C7)cc(O)c6nc-5c4c3C2=O)NC(=O)C(C)=CC=CC(C)C(O)C(C)C(O)C(C)C(O)C1C (stereo not drawn) [Compound 7] | 0.12 µg/mL (≈ 0.136 µM) | 0.004 µg/mL (≈ 0.00453 µM) | 4 µg/mL (≈ 4.53 µM) | 4 µg/mL (≈ 4.53 µM) | >8 µg/mL | 
11 | CO[C@H]1/C=C/O[C@@]2(C)Oc3c(C)c(O)c4c(=O)c(c5oc6cc(N7CCC(N8CCOCC8)CC7)cc(O)c6nc-5c4c3C2=O)NC(=O)/C(C)=C\C=C\[C@H](C)[C@H](O)[C@@H](C)[C@@H](O)[C@@H](C)[C@H](OC(C)=O)[C@@H]1C [Compound 9] | 0.015 µg/mL (≈ 0.0155 µM) | 0.001 µg/mL (≈ 0.00103 µM) | 2 µg/mL (≈ 2.06 µM) | 2 µg/mL (≈ 2.06 µM) | 8 µg/mL (≈ 8.26 µM) | 
12 | CO[C@H]1/C=C/O[C@@]2(C)Oc3c(C)c(O)c4c(=O)c(c5oc6cc(N7CC8CCC(C7)N8)cc(O)c6nc-5c4c3C2=O)NC(=O)/C(C)=C\C=C\[C@H](C)[C@H](O)[C@@H](C)[C@@H](O)[C@@H](C)[C@H](OC(C)=O)[C@@H]1C [Compound 10] | 0.008 µg/mL (≈ 0.00878 µM) | 0.00012 µg/mL (≈ 0.000132 µM) | 1 µg/mL (≈ 1.1 µM) | 2 µg/mL (≈ 2.2 µM) | >8 µg/mL | 
13 | CO[C@H]1/C=C/O[C@@]2(C)Oc3c(C)c(O)c4c(=O)c(c5oc6cc(N7CCC(N8CCOCC8)CC7)cc(O)c6nc-5c4c3C2=O)NC(=O)/C(C)=C\C=C\[C@H](C)[C@H](O)[C@@H](C)[C@@H](O)[C@@H](C)[C@H](O)[C@@H]1C [Compound 11] | 0.004 µg/mL (≈ 0.00431 µM) | 0.00012 µg/mL (≈ 0.000129 µM) | 0.25 µg/mL (≈ 0.27 µM) | 1 µg/mL (≈ 1.08 µM) | 4 µg/mL (≈ 4.31 µM) | 
14 | COC1C=COC2(C)Oc3c(C)c(O)c4c(=O)c(c5oc6cc(N7CC8CCCNC8C7)cc(O)c6nc-5c4c3C2=O)NC(=O)C(C)=CC=CC(C)C(O)C(C)C(O)C(C)C(OC(C)=O)C1C (stereo not drawn) [Compound 12] | 0.004 µg/mL (≈ 0.00432 µM) | 0.00025 µg/mL (≈ 0.00027 µM) | 0.12 µg/mL (≈ 0.13 µM) | 0.25 µg/mL (≈ 0.27 µM) | 8 µg/mL (≈ 8.65 µM) | 
15 | CO[C@H]1/C=C/O[C@@]2(C)Oc3c(C)c(O)c4c(=O)c(c5oc6c7c(cc(O)c6nc-5c4c3C2=O)N(Cc2ccccc2)CCN7Cc2ccccc2)NC(=O)/C(C)=C\C=C\[C@H](C)[C@H](O)[C@@H](C)[C@@H](O)[C@@H](C)[C@H](OC(C)=O)[C@@H]1C [Compound 85] | 2 µg/mL (≈ 1.93 µM) |  |  | >8 µg/mL | >8 µg/mL | 8 µg/mL (≈ 7.71 µM)
16 | CO[C@H]1/C=C/O[C@@]2(C)Oc3c(C)c(O)c4c(=O)c(c5oc6cc(N7CCN(c8ccccc8)CC7)cc(O)c6nc-5c4c3C2=O)NC(=O)/C(C)=C\C=C\[C@H](C)[C@H](O)[C@@H](C)[C@@H](O)[C@@H](C)[C@H](O)[C@@H]1C [Compound 102] | 0.004 µg/mL (≈ 0.00435 µM) |  | 0.06 µg/mL (≈ 0.0653 µM) | 0.25 µg/mL (≈ 0.272 µM) | 4 µg/mL (≈ 4.35 µM) | 
17 | CO[C@H]1/C=C/O[C@@]2(C)Oc3c(C)c(O)c4c(=O)c(c5oc6c(F)cc(F)cc6nc-5c4c3C2=O)NC(=O)/C(C)=C\C=C\[C@H](C)[C@H](O)[C@@H](C)[C@@H](O)[C@@H](C)[C@H](O)[C@@H]1C [Compound 137] | 0.12 µg/mL (≈ 0.154 µM) |  | 1 µg/mL (≈ 1.28 µM) | 2 µg/mL (≈ 2.57 µM) | >8 µg/mL | 
